GI50 and TGI data for eight molecules are collected here from PubChem BioAssay (NCI).

The structures appear in SMILES notation.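 These data come from cells grown in 96-well plates and exposed to compound for 48 hours at five concentrations. Abbreviation: GI50, concentration required for 50% inhibition of growth. TGI marks complete inhibition of growth.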

Among the test systems are A549 NSCLC; DU-145 prostate; HCC-2998 colon; HOP-62 NSCLC; HOP-92 NSCLC; HS 578T breast; OVCAR-4 ovarian; SF-539 CNS; SK-MEL-5 melanoma; UACC-257 melanoma.
Holding throughout (assay): NCI tumour cell line growth inhibition, 48 h

As to `COc1ccc2c(c1)[n+](=O)c(/C=C/C(=O)c1cc(OC)c(OC)c(OC)c1)c(C)n2[O-]`, the GI50 with A549 NSCLC is 21.5 µM; in the test with DU-145 prostate it was 2.1 µM; in the test with HCC-2998 colon, 23.4 µM; with HOP-62 NSCLC, 19.4 µM; in the test on HOP-92 NSCLC, 2.56 µM; in the test with HS 578T breast, 4.72 µM. Besides, the GI50 with OVCAR-4 ovarian was 9.35 µM; in the test on SF-539 CNS it was 15.7 µM; with SK-MEL-5 melanoma, 12.6 µM; in the test on UACC-257 melanoma, 9.61 µM. For the same molecule, the TGI was > 100 µM in the test on A549 NSCLC; 13.4 µM in the test with DU-145 prostate; 68.7 µM with HCC-2998 colon; 47 µM in the test with HOP-62 NSCLC; 19.1 µM in the test on HOP-92 NSCLC; 46.6 µM in the test with HS 578T breast. The TGI was > 100 µM with OVCAR-4 ovarian, 38.8 µM with SF-539 CNS, 34.3 µM with SK-MEL-5 melanoma and > 100 µM with UACC-257 melanoma.
In the case of `COc1ccc(C(=O)c2ccccc2)c(O)c1`, the GI50 with A549 NSCLC was > 100 µM; in the test with DU-145 prostate it was 80 µM; in the test on HCC-2998 colon it was > 100 µM; in the test with HOP-62 NSCLC it was > 100 µM; in the test on HOP-92 NSCLC it was 78.5 µM; with HS 578T breast, 61.2 µM. Further, the GI50 was > 100 µM with OVCAR-4 ovarian, > 100 µM in the test on SF-539 CNS, 37.9 µM with SK-MEL-5 melanoma and > 100 µM in the test with UACC-257 melanoma. Also, the TGI in the test on A549 NSCLC, in the test with DU-145 prostate, in the test on HCC-2998 colon, in the test on HOP-62 NSCLC, in the test on HOP-92 NSCLC and in the test on HS 578T breast was > 100 µM each time. Also, the TGI in the test on OVCAR-4 ovarian, with SF-539 CNS, in the test on SK-MEL-5 melanoma and with UACC-257 melanoma was > 100 µM throughout.
For the molecule `CN(C)CCN=c1nc2c(c(N)n1-c1ccccc1)c(=S)n(-c1ccccc1)c(=S)n2-c1ccccc1`, the GI50 in the test on A549 NSCLC was 4.86 µM; in the test on DU-145 prostate it was 4.91 µM; in the test with HCC-2998 colon, 2.05 µM; with HOP-62 NSCLC, 2.73 µM; in the test with HOP-92 NSCLC, 1.62 µM; with HS 578T breast, 1.98 µM. The GI50 in the test on OVCAR-4 ovarian was 2.98 µM; in the test with SF-539 CNS, 1.68 µM; in the test with SK-MEL-5 melanoma, 1.49 µM; in the test with UACC-257 melanoma, 1.91 µM. For the same molecule, the TGI is 19.8 µM in the test with A549 NSCLC; 17.7 µM with DU-145 prostate; 5.33 µM in the test on HCC-2998 colon; 10.8 µM with HOP-62 NSCLC; 12.6 µM in the test on HOP-92 NSCLC; 9.51 µM in the test on HS 578T breast. Moreover, the TGI was 9.01 µM with OVCAR-4 ovarian, 3.29 µM in the test on SF-539 CNS, 2.93 µM in the test with SK-MEL-5 melanoma and 3.75 µM in the test on UACC-257 melanoma.
Take `N#C/C(=C/C=C/c1cccc(Cl)c1)S(=O)c1ccccc1` (configuration not stated): the GI50 was 1.21 µM with A549 NSCLC; 0.393 µM in the test with DU-145 prostate; 0.366 µM with HCC-2998 colon; 0.326 µM in the test on HOP-62 NSCLC; 0.398 µM in the test with HOP-92 NSCLC; 1.68 µM in the test with HS 578T breast. Moreover, the GI50 in the test with OVCAR-4 ovarian was 0.266 µM; with SF-539 CNS, 0.281 µM; in the test on SK-MEL-5 melanoma, 1.79 µM; with UACC-257 melanoma, 1.64 µM. Further, the TGI in the test with A549 NSCLC was 3.12 µM; with DU-145 prostate it was 1.56 µM; in the test with HCC-2998 colon it was 1.31 µM; with HOP-62 NSCLC, 1.13 µM; in the test with HOP-92 NSCLC, 1.62 µM; in the test on HS 578T breast, 33.4 µM. Also, the TGI came out at 1.16 µM in the test on OVCAR-4 ovarian, 0.882 µM with SF-539 CNS, 3.61 µM in the test with SK-MEL-5 melanoma and 3.16 µM in the test with UACC-257 melanoma.
With `Cc1nc(C(=O)OCc2ccccc2)cc(OCc2ccccc2)c1C`, the GI50 in the test with A549 NSCLC was 19.3 µM; in the test on DU-145 prostate, 17 µM; in the test on HCC-2998 colon, 20.5 µM; in the test with HOP-62 NSCLC, 19.9 µM; in the test with HOP-92 NSCLC, 14.7 µM; in the test on HS 578T breast it was 18.6 µM. The GI50 in the test with OVCAR-4 ovarian is 11.8 µM; in the test with SF-539 CNS, 18.1 µM; with SK-MEL-5 melanoma, 10.7 µM; in the test with UACC-257 melanoma it was 18.8 µM. Also, the TGI turned out to be 49.4 µM in the test on A549 NSCLC; 41.4 µM with DU-145 prostate; 54.1 µM in the test with HCC-2998 colon; 40.7 µM in the test on HOP-62 NSCLC; 30.8 µM with HOP-92 NSCLC; 47.9 µM with HS 578T breast. Moreover, the TGI in the test on OVCAR-4 ovarian was 33.6 µM; in the test on SF-539 CNS, 35.2 µM; in the test on SK-MEL-5 melanoma, 26 µM; in the test with UACC-257 melanoma, 38.3 µM.
Turning to `O=C(OCC1=CC(=O)c2ccccc2C1=O)c1ccccc1`, the GI50 in the test with A549 NSCLC is 2.41 µM; in the test with DU-145 prostate, 1.83 µM; in the test on HCC-2998 colon, 6.14 µM; in the test with HOP-62 NSCLC, 14.4 µM; in the test on HOP-92 NSCLC, 20.2 µM; in the test on HS 578T breast it was 14.3 µM. The GI50 is 13.2 µM in the test on OVCAR-4 ovarian, 12.2 µM with SF-539 CNS, 1.31 µM with SK-MEL-5 melanoma and 3.13 µM in the test on UACC-257 melanoma. The TGI in the test on A549 NSCLC is 6.24 µM; with DU-145 prostate, 3.6 µM; with HCC-2998 colon, 18.8 µM; with HOP-62 NSCLC it was 29.6 µM; with HOP-92 NSCLC it was 34.9 µM; in the test with HS 578T breast, 51.7 µM. The TGI is 28.4 µM in the test on OVCAR-4 ovarian, 25.3 µM with SF-539 CNS, 2.68 µM in the test with SK-MEL-5 melanoma and 9.47 µM with UACC-257 melanoma.
In the case of `OC(Cc1cccc2ccccc12)CN1CCC(c2ccccc2)CC1` (configuration not stated), the TGI turned out to be 29.9 µM in the test on A549 NSCLC; 31.9 µM in the test with DU-145 prostate; 10.8 µM with HCC-2998 colon; 30.2 µM in the test on HOP-62 NSCLC; 27.4 µM in the test on HOP-92 NSCLC; 32.4 µM in the test with HS 578T breast. The TGI with SF-539 CNS stood at 31.1 µM; with SK-MEL-5 melanoma, 24.4 µM; in the test with UACC-257 melanoma it was 18.8 µM.
For the molecule `COc1ccc(CN2c3ccccc3Sc3ccccc32)cc1O`, the GI50 in the test on A549 NSCLC was 0.471 µM; with DU-145 prostate it was 0.374 µM; with HCC-2998 colon, 0.422 µM; in the test with HOP-62 NSCLC it was 0.384 µM; in the test with HOP-92 NSCLC, 0.502 µM; in the test with HS 578T breast, 0.933 µM. The GI50 in the test with OVCAR-4 ovarian is 0.726 µM; in the test on SF-539 CNS it was 0.27 µM; with SK-MEL-5 melanoma, 0.438 µM. Further, the TGI is 16.7 µM in the test with A549 NSCLC; 15 µM in the test on DU-145 prostate; 10.7 µM in the test with HCC-2998 colon; 17.4 µM in the test with HOP-62 NSCLC; 17.5 µM in the test with HOP-92 NSCLC; 46 µM with HS 578T breast. Also, the TGI in the test on OVCAR-4 ovarian came to 19.3 µM; with SF-539 CNS it was 0.823 µM; with SK-MEL-5 melanoma, 11.3 µM.
